Reference: publication PMC4393083, “Antiviral Activity and Possible Mechanism of Action of Constituents Identified in Paeonia lactiflora Root toward Human Rhinoviruses” (PLoS ONE, 2015)
Read-outs that look alike come from different tables or passages of the source.

Columns and labels:
HRV-2 [1] = assay: Cytopathic effect inhibition assay (MTT), HRV-2 in MRC5 cells; format: cell-based, human rhinovirus; details: read-out: IC50 (95% CL) HRV-2
Method: (§1) Monolayers of HeLa and MRC5 cells were seeded onto a 96-well culture plate as stated previously. Subsequently, 90 μL media containing several different concentrations (1–1000 μg/mL) of each test material in DMSO was put into the wells, and then 10 μL of 10×TCID50 of the virus stock was added to produce an appropriate CPE within 2 days after infection. Ribavirin served as a reference control and was similarly prepared. Negative controls consisted of the DMSO solution. Viral inhibition rate (VIR) (%) was calculated according to the formula [21], VIR = (A tV—A cV)/(A cd—A cV) × 100, where A tV is the optical density measured with a given concentration of the test compound in HRV infected cells; A cV is the optical density measured for the control untreated HRV infected cells; A cd is the optical density measured for the control untreated HRV uninfected cells.
(§2) The CC50 and IC50 values were determined using GraphPad Prism 5 software program (GraphPad Software, La Jolla, CA). […] The selectivity index (SI) was determined as the ratio of CC50 to IC50 [23]. All data represent the mean ± SD of duplicate or triplicate samples of three independent experiments. Statistical analyses were carried out using SAS 9.13 program (SAS Institute, Cary, NC). Data from two groups were analyzed by a Student’s t-test, and multiple groups were analyzed by a one-way analysis of variance and Bonferroni multiple comparison post-test.

HRV-2 [2] = assay: Virus titration assay, HRV-2 in MRC5 cultures; format: cell-based, human rhinovirus; details: PGG 20 μg/mL, PA 100 μg/mL, ribavirin 100 μg/mL; for Log (TCID50/mL) ± SE HRV-2: infected MRC5 cultures, 48 h, infected untreated control 3.93; for Reduction of virus replication (Log (TCID50/mL)) ± SE HRV-2: vs infected untreated control
Method: (§3) Virus titers in infected MRC-5 cultures treated with PA and PGG were measured as TCID50 using MTT-based titration method. In brief, MRC5 cells were seeded at 10^5 cells/mL in a 6-well plate. After 24 h, the cell monolayers were treated with 100 μg/mL PA or 20 μg/mL PGG and infected with HRV-2 or HRV-4 in a concentration of 10×TCID50/mL. Uninfected untreated and infected untreated cultures were included in the assay. The 100 μg/mL of ribavirin was used as a reference control. After 48 h incubation at 37°C, the cultures were frozen and thawed at −80°C/25°C. Cell debris was removed by centrifugation (2000 rpm) and the virus supernatants were collected. Virus titration was then performed in HeLa cell cultures. Initially, a 1:10 dilution of each supernatant was prepared followed by 10 serial 2-fold-dilutions, and added to HeLa cell monolayers. After 48 h, cell mortality was measured using an MTT assay stated previously. Graphs were built by plotting dead cell percentages toward virus dilution factors of each virus supernatant. The 50% infectivity point was calculated through a linear regression analysis of the curve.

HRV-4 [3] = assay: Cytopathic effect inhibition assay (MTT), HRV-4 in MRC5 cells; format: cell-based, human rhinovirus; details: read-out: IC50 (95% CL) HRV-4
Method: as §1, §2

HRV-4 particles = assay: Infectivity of HRV-4 particles (preincubation of virus); format: cell-based, human rhinovirus; details: MRC5 cells, 2 days; for inhibition at 100 µg/mL / inhibition at 20 µg/mL: Human rhinovirus sp.
Method: The effects of the test compounds on the infectivity of HRV-4 particles were elucidated as described previously by Choi et al.. […] HRV-4 was preincubated with 100 μg/mL PA, 20 μg/mL PGG, or 100 μg/mL ribavirin for 1 h at 4°C. Monolayers of MRC5 cells were infected with the pretreated or untreated HRV-4 for 1 h at 37°C. Unbound virus was removed by washing the wells with PBS twice, and then cells were incubated in fresh medium supplemented with or without test compounds at 37°C. After 2 days, MTT test and antiviral activity were carried out as stated previously.

HRV-2 [4] = assay: Cytopathic effect inhibition assay (MTT), HRV-2 in HeLa cells; format: cell-based, human rhinovirus; details: read-out: IC50 (95% CL) HRV-2
Method: as §1, §2

[5] = Cytotoxicity MTT assay in MRC5 cells; format: cell-based, human; details: human, tetrazolium assay, read-out: CC50 (95% CL)
Method: (§4) The cytotoxicity of the test materials to two human cell lines was evaluated using an MTT assay described previously by Morgan. In brief, a 10× stock solution of MTT was prepared by adding 5 mg/mL MTT in phosphate-buffered saline (PBS) (pH 7.4). The stock solution was sterile-filtered and stored at −20°C. HeLa and MRC5 cells were seeded onto 96-well culture plates at a density of 3 × 10^4 cells per well for 1 day. The culture medium was removed and the plates with monolayer cells were replaced with media containing several different concentrations (1–1000 μg/mL) of the test materials in dimethylsulfoxide (DMSO). After incubation at 37°C and 5% CO2 for 2 days, the culture plates were then washed once with 200 μL PBS. A volume of 100 μL medium containing 0.05% MTT were added to each well and then incubated for 4 h at the same condition. After then, MTT solution was removed and 150 μL DMSO was added to each well. Finally, the plate was shaken for 15 min to dissolve the purple formazan crystals that had formed. Absorbance was read at 560 nm by using a VersaMax microplate reader (Molecular Devices, Sunnyvale, CA) with a reference absorbance at 670 nm.
as §2, with “Statistical analyses were carried out using SAS 9.13 program (SAS Institute, Cary, NC).” left out

HRV-4 [6] = assay: Virus titration assay, HRV-4 in MRC5 cultures; format: cell-based, human rhinovirus; details: PGG 20 μg/mL, PA 100 μg/mL, ribavirin 100 μg/mL; for Log (TCID50/mL) ± SE HRV-4: infected MRC5 cultures, 48 h, infected untreated control 3.81; for Reduction of virus replication (Log (TCID50/mL)) ± SE HRV-4: vs infected untreated control
Method: as §3

[7] = Cytotoxicity MTT assay in HeLa cells; format: cell-based; details: human, tetrazolium assay, read-out: CC50 (95% CL)
Method: as §4
as §2, with “Statistical analyses were carried out using SAS 9.13 program (SAS Institute, Cary, NC).” left out

[8] = test system: two HRVs (HRV-2 and HRV-4); assay: Cytopathic effect inhibition assay, summary over both serotypes; format: cell-based, human rhinovirus; details: Rhinovirus A; range over HRV-2 and HRV-4, HeLa and MRC5 cells; read-out: IC50 toward two HRVs (range)
Method: as §1, §2

[9] = Rhinovirus A, HRV2, MRC5, HRV-2 in MRC5 cells
[10] = Human rhinovirus sp., HRV4, MRC5, HRV-4 in MRC5 cells
[11] = HRV4, 48 h, 100 μg/mL PA, 20 μg/mL PGG, 100 μg/mL ribavirin, read-out: inhibition rate, continuous presence during infection
[12] = HRV4, virus preincubated 1 h at 4°C with 100 μg/mL PA, 20 μg/mL PGG or 100 μg/mL ribavirin, read-out: inhibition rate, preincubation of HRV-4 particles

Structure (SMILES)	IC50 (HRV-2 [1]; HRV-2 in MRC5 cells) [µM]	IC50 (HRV-2 [1]; [9]) [µM]	reduction of the HRV-2 titer (HRV-2 [2]) [%]	Log (TCID50/mL) ± SE HRV-2 (HRV-2 [2])	Reduction of virus replication (Log (TCID50/mL)) ± SE HRV-2 (HRV-2 [2])	IC50 (HRV-4 [3]; HRV-4 in MRC5 cells) [µM]	IC50 (HRV-4 [3]; [10]) [µM]	inhibition at 100 µg/mL (HRV-4 particles; [11]) [%]	inhibition at 100 µg/mL (HRV-4 particles; [12]) [%]	IC50 (HRV-2 [4]; Rhinovirus A, HRV2, HeLa) [µM]	IC50 (HRV-2 [4]) [µM]	CC50 at 2 days [5] [µM]	reduction of the HRV-4 titer (HRV-4 [6]) [%]	Log (TCID50/mL) ± SE HRV-4 (HRV-4 [6])	Reduction of virus replication (Log (TCID50/mL)) ± SE HRV-4 (HRV-4 [6])	CC50 at 2 days [7] [µM]	IC50 [8] [µM]	inhibition at 20 µg/mL (HRV-4 particles; [11]) [%]	inhibition at 20 µg/mL (HRV-4 particles; [12]) [%]	inhibition rate, preincubation of HRV-4 particles (HRV-4 particles; virus preincubated 1 h at 4°C with 100 μg/mL PA, 20 μg/mL PGG or 100 μg/mL ribavirin) [%]
COc1ccc(C(C)=O)c(O)c1 [PA, paeonol]	503	503	22.4	3.05 ± 0.046 b Log (TCID50/mL)	0.88 ± 0.046 Log (TCID50/mL)	492	492	57.2	10.6	608	608	3140	27.6	2.76 ± 0.024 b Log (TCID50/mL)	1.05 ± 0.023 Log (TCID50/mL)	3160	492 to 608	–	–	–
O=C(OC[C@H]1O[C@@H](OC(=O)c2cc(O)c(O)c(O)c2)[C@H](OC(=O)c2cc(O)c(O)c(O)c2)[C@@H](OC(=O)c2cc(O)c(O)c(O)c2)[C@@H]1OC(=O)c1cc(O)c(O)c(O)c1)c1cc(O)c(O)c(O)c1 [PGG, 1,2,3,4,6-penta-O-galloyl-β-D-glucopyranose]	17.9	17.9	17.3	3.25 ± 0.075 b ^b Log (TCID50/mL)	0.68 ± 0.075 Log (TCID50/mL)	17.3	17.3	–	–	11.6	11.6	108	20.7	3.04 ± 0.038 c Log (TCID50/mL)	0.79 ± 0.038 Log (TCID50/mL)	109	11.6 to 17.9	54.5	11.2	–
NC(=O)c1ncn([C@@H]2O[C@H](CO)[C@@H](O)[C@H]2O)n1 [Ribavirin, reference compound]	240	240	30.3	2.74 ± 0.020 a Log (TCID50/mL)	1.19 ± 0.020 Log (TCID50/mL)	–	312	58.2	–	304	304	2230	36.0	2.44 ± 0.024 a Log (TCID50/mL)	1.37 ± 0.023 Log (TCID50/mL)	2340	240 to 324	–	–	10.0
